Results taken from patent US9328083B2, “2-aminated methylene or 2-esterified methylene tanshinone derivatives, and preparation method and application thereof” (HANGZHOU BENSHENG PHARMACEUTICAL CO., LTD., priority 2011, dated 2016).
Converted amounts (≈) assume the structure as drawn. Blank lines part the entries; values can stand above or below the molecule they belong to.

Legend:
[1] = tested on: H9 (acute lymphoblastic leukemia, ALL); test: MTT growth inhibition of leukemia cells, 72 h; assay type: cell-based, human; settings: Homo sapiens, H9, 72 h; for IC50: read-out: IC50; for IC90: read-out: IC90
Method in brief: (§1)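 Test compounds, dissolved in DMSO and further diluted with culture medium, go onto cells seeded the day before at 6000 per well in RPMI-1640/10% FBS. Plates stay 72 h in a 5% CO2 incubator at 37 °C, and cell viability is then assessed by the MTT method.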

[2] = tested on: Jurkat (acute lymphoblastic leukemia, ALL); test: MTT growth inhibition of leukemia cells, 72 h; assay type: cell-based, human; settings: for IC50 / IC90: Homo sapiens, 72 h; for IC50: read-out: IC50; for IC90: read-out: IC90
Method in brief: as §1

[3] = tested on: K562/adr (drug-resistant, chronic myeloid leukemia, CML); test: MTT growth inhibition of leukemia cells, 72 h; assay type: cell-based, human; settings: Homo sapiens, K562/Adr; for IC50: read-out: IC50; for IC90: read-out: IC90
Method in brief: as §1

[4] = tested on: Kasumi-1 (acute myeloid leukemia M2 type, AML-M2); test: MTT growth inhibition of leukemia cells, 72 h; assay type: cell-based, human; settings: Homo sapiens, Kasumi-1, 72 h; for IC50: read-out: IC50; for IC90: read-out: IC90
Method in brief: as §1

[5] = tested on: NB4 (acute promyelocytic leukemia, AML); test: MTT growth inhibition of leukemia cells, 72 h; assay type: cell-based, human; settings: Homo sapiens, NB4, 72 h; for IC50: read-out: IC50; for IC90: read-out: IC90
Method in brief: as §1

[6] = tested on: RPMI8226 (multiple myeloma); test: MTT growth inhibition of multiple myeloma cells, 72 h; assay type: cell-based, human; settings: Homo sapiens, RPMI 8226, 72 h; for IC50: read-out: IC50; for IC90: read-out: IC90
Method in brief: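 Viability read by MTT after 72 h at 37° C, 5% CO2: compounds from a 10 mg/mL DMSO stock were diluted in medium and added at several concentrations to 6000 RPMI8226 cells per well in 1640 medium plus 10% FBS.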

A549 (human lung cancer) = test: MTT growth inhibition of human solid tumor cells, 72 h; assay type: cell-based; settings: Homo sapiens, A549, 72 h; for IC50: read-out: IC50; for IC90: read-out: IC90
Method in brief: (§2)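 We plate 4000 cells into each well, culture them 24 h (37° C, 5% CO2, DMEM High Glucose plus 10% fetal bovine serum), add compound dilutions, mix uniformly and measure viable cell concentration.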

[7] = tested on: Becap37 (human breast cancer cell); test: as above; assay type: cell-based; settings: Homo sapiens, Becap-37, 72 h; for IC50: read-out: IC50; for IC90: read-out: IC90
Method in brief: as §2

[8] = tested on: CNE (nasopharyngeal carcinoma cell); test: as above; assay type: cell-based; settings: Homo sapiens; for IC50: read-out: IC50; for IC90: read-out: IC90
Method in brief: as §2

[9] = tested on: CaES-17 (esophageal cancer cell); test: as above; assay type: cell-based; settings: for IC50 / IC90: Homo sapiens, CaEs17, CaEs-17, 72 h; for IC50: read-out: IC50; for IC90: read-out: IC90
Method in brief: as §2

[10] = tested on: Hela (human cervical cancer cell); test: as above; assay type: cell-based; settings: Homo sapiens, HeLa, 72 h; for IC50: read-out: IC50; for IC90: read-out: IC90
Method in brief: as §2

[11] = tested on: Hep G2 (human liver cancer cell); test: as above; assay type: cell-based; settings: Homo sapiens, HepG2, Hep G2, 72 h; for IC50: read-out: IC50; for IC90: read-out: IC90
Method in brief: as §2

[12] = tested on: Hep-2 (laryngeal carcinoma); test: as above; assay type: cell-based; settings: Homo sapiens, HEp-2, 72 h; for IC50: read-out: IC50; for IC90: read-out: IC90
Method in brief: as §2

MG63 (osteosarcoma) = test: as above; assay type: cell-based; settings: Homo sapiens, MG-63, 72 h; for IC50: read-out: IC50; for IC90: read-out: IC90
Method in brief: as §2

[13] = tested on: MGC 803 (human gastric cancer cell); test: as above; assay type: cell-based; settings: Homo sapiens, MGC-803, 72 h; for IC50: read-out: IC50; for IC90: read-out: IC90
Method in brief: as §2

[14] = tested on: PANC-1 (pancreatic cancer); test: as above; assay type: cell-based; settings: for IC50 / IC90: Homo sapiens, PANC-1, 72 h; for IC50: read-out: IC50; for IC90: read-out: IC90
Method in brief: as §2

PC-3 (prostate cancer) = test: as above; assay type: cell-based; settings: Homo sapiens, PC-3, 72 h; for IC50: read-out: IC50; for IC90: read-out: IC90
Method in brief: as §2

[15] = tested on: RKO (human colon adenocarcinoma cell); test: as above; assay type: cell-based; settings: Homo sapiens; for IC50: read-out: IC50; for IC90: read-out: IC90
Method in brief: as §2

[16] = tested on: SK-OV-3 (ovarian cancer cell); test: as above; assay type: cell-based; settings: Homo sapiens, SK-OV-3, 72 h; for IC50: read-out: IC50; for IC90: read-out: IC90
Method in brief: as §2

[17] = tested on: U87 MG (malignant glioma cell); test: as above; assay type: cell-based; settings: Homo sapiens, U-87 MG, U87-MG, 72 h; for IC50: read-out: IC50; for IC90: read-out: IC90
Method in brief: as §2

IC50 [1]: 0.45 µg/mL (≈ 1.24 µM)
IC90 [1]: 0.96 µg/mL (≈ 2.64 µM)
IC50 [2]: 0.16 µg/mL (≈ 0.44 µM)
IC90 [2]: 0.36 µg/mL (≈ 0.991 µM)
IC50 [3]: 0.31 µg/mL (≈ 0.853 µM)
IC90 [3]: 0.86 µg/mL (≈ 2.37 µM)
IC50 [4]: 0.12 µg/mL (≈ 0.33 µM)
IC90 [4]: 0.23 µg/mL (≈ 0.633 µM)
IC50 [5]: 0.14 µg/mL (≈ 0.385 µM)
IC90 [5]: 0.41 µg/mL (≈ 1.13 µM)
IC50 [6]: 0.39 µg/mL (≈ 1.07 µM)
IC90 [6]: 0.8 µg/mL (≈ 2.2 µM)
IC50 (A549 (human lung cancer)): 0.83 µg/mL (≈ 2.28 µM)
IC90 (A549 (human lung cancer)): 3.13 µg/mL (≈ 8.61 µM)
IC50 [7]: 0.76 µg/mL (≈ 2.09 µM)
IC90 [7]: 1.77 µg/mL (≈ 4.87 µM)
IC50 [8]: 1.4 µg/mL (≈ 3.85 µM)
IC90 [8]: 3 µg/mL (≈ 8.26 µM)
IC50 [9]: 0.45 µg/mL (≈ 1.24 µM)
IC90 [9]: 0.91 µg/mL (≈ 2.5 µM)
IC50 [10]: 0.67 µg/mL (≈ 1.84 µM)
IC90 [10]: 1.8 µg/mL (≈ 4.95 µM)
IC50 [11]: 0.56 µg/mL (≈ 1.54 µM)
IC90 [11]: 1.82 µg/mL (≈ 5.01 µM)
IC50 [12]: 0.87 µg/mL (≈ 2.39 µM)
IC90 [12]: 2.79 µg/mL (≈ 7.68 µM)
IC50 (MG63 (osteosarcoma)): 0.78 µg/mL (≈ 2.15 µM)
IC90 (MG63 (osteosarcoma)): 1.76 µg/mL (≈ 4.84 µM)
IC50 [13]: 0.37 µg/mL (≈ 1.02 µM)
IC90 [13]: 2.94 µg/mL (≈ 8.09 µM)
IC50 [14]: 0.27 µg/mL (≈ 0.743 µM)
IC90 [14]: 2.6 µg/mL (≈ 7.15 µM)
IC50 (PC-3 (prostate cancer)): 0.63 µg/mL (≈ 1.73 µM)
IC90 (PC-3 (prostate cancer)): 2 µg/mL (≈ 5.5 µM)
IC50 [15]: 0.125 µg/mL (≈ 0.344 µM)
IC90 [15]: 1.3 µg/mL (≈ 3.58 µM)
IC50 [16]: 1.44 µg/mL (≈ 3.96 µM)
IC90 [16]: 1.97 µg/mL (≈ 5.42 µM)
IC50 [17]: 0.76 µg/mL (≈ 2.09 µM)
IC90 [17]: 1.82 µg/mL (≈ 5.01 µM)
SMILES: Cc1c(CN(C)CCO)oc2c1C(=O)C(=O)c1c-2ccc2c(C)cccc12 [BS-TA-B17]
improvement of anti-Jurkat activity as compared with tanshinone I ([2]; vs tanshinone I): more than 10 fold
improvement of anti-CaES-17 activity as compared with tanshinone I ([9]; CaES-17, vs tanshinone I): more than 7 fold
improvement of anti-PANC-1 activity as compared with tanshinone I ([14]; PANC-1, vs tanshinone I): more than 10 fold

IC50 [1]: 2.2 µg/mL (≈ 6.41 µM)
IC90 [1]: 5.9 µg/mL (≈ 17.2 µM)
IC50 [2]: 3.41 µg/mL (≈ 9.93 µM)
IC90 [2]: 9.55 µg/mL (≈ 27.8 µM)
IC50 [3]: 1.3 µg/mL (≈ 3.79 µM)
IC90 [3]: 2.73 µg/mL (≈ 7.95 µM)
IC50 [4]: 0.83 µg/mL (≈ 2.42 µM)
IC90 [4]: 1.8 µg/mL (≈ 5.24 µM)
IC50 [5]: 1.53 µg/mL (≈ 4.46 µM)
IC90 [5]: 5.46 µg/mL (≈ 15.9 µM)
IC50 [6]: 5.78 µg/mL (≈ 16.8 µM)
IC90 [6]: 10.5 µg/mL (≈ 30.5 µM)
IC50 (A549 (human lung cancer)): 1.8 µg/mL (≈ 5.24 µM)
IC90 (A549 (human lung cancer)): 10 µg/mL (≈ 29.1 µM)
IC50 [7]: 6.73 µg/mL (≈ 19.6 µM)
IC90 [7]: 15.1 µg/mL (≈ 43.9 µM)
IC50 [8]: 5.99 µg/mL (≈ 17.4 µM)
IC90 [8]: 79 µg/mL (≈ 230 µM)
IC50 [9]: 8.71 µg/mL (≈ 25.4 µM)
IC90 [9]: 14.2 µg/mL (≈ 41.5 µM)
IC50 [10]: 3.3 µg/mL (≈ 9.61 µM)
IC90 [10]: 7.9 µg/mL (≈ 23 µM)
IC50 [11]: 7.3 µg/mL (≈ 21.3 µM)
IC90 [11]: 25.8 µg/mL (≈ 75 µM)
IC50 [12]: 5.16 µg/mL (≈ 15 µM)
IC90 [12]: 23.7 µg/mL (≈ 69 µM)
IC50 (MG63 (osteosarcoma)): 4.68 µg/mL (≈ 13.6 µM)
IC90 (MG63 (osteosarcoma)): 15.3 µg/mL (≈ 44.6 µM)
IC50 [13]: 7.01 µg/mL (≈ 20.4 µM)
IC90 [13]: 17.3 µg/mL (≈ 50.4 µM)
IC50 [14]: 1.14 µg/mL (≈ 3.32 µM)
IC90 [14]: 7.28 µg/mL (≈ 21.2 µM)
IC50 (PC-3 (prostate cancer)): 7.3 µg/mL (≈ 21.3 µM)
IC90 (PC-3 (prostate cancer)): 15.1 µg/mL (≈ 44 µM)
IC50 [15]: 2.46 µg/mL (≈ 7.16 µM)
IC90 [15]: 27.9 µg/mL (≈ 81.1 µM)
IC50 [16]: > 16 µg/mL
IC90 [16]: > 16 µg/mL
IC50 [17]: 6.79 µg/mL (≈ 19.8 µM)
IC90 [17]: 21.3 µg/mL (≈ 62.1 µM)
SMILES: C#CCNCc1oc2c(c1C)C(=O)C(=O)c1c-2ccc2c(C)cccc12 [BS-TA-B21]
